Test [1] has as its system LPA-induced MCP-1 in NRK-49F cells. The experiment in a line: LPA-induced MCP-1 AlphaLISA assay. The conditions noted are these: Rattus norvegicus, final LPA 10 μM, 7 hours; for Emax: read-out: Maximum Inhibition. It is filed as cell-based. The protocol: Two days prior to the experiment, NRK-49F cells were plated at 8,000 cells/well in 100 μL of growth medium [DMEM (Life Technologies #11995) with 5% dFBS (Life Technologies #30067-334), 100 units/mL penicillin/streptomycin (Life Technologies #15140122)] in 96-well clear flat bottom polystyrene TC-treated microplate (Corning® #3599) and incubated in humidified 10% CO2 at 37° C. One day prior to the experiment, the cell medium was removed and serum free medium [100 μL/well, DMEM (Life Technologies #11995) with 0.1% fatty acid free BSA (Sigma #A6003)] was added with continued incubation in humidified 10% CO2 at 37° C. overnight. On the day of the assay, test compounds were 1:3 serially diluted in 100% DMSO using a BioTek Precision™ system and then transferred (equivalent volume of DMSO as controls) to a plate in serum free medium [DMEM with 0.1% fatty acid free BSA] using a Biomek® NX workstation to give a 2× compound solution. The cell culture medium was removed, and cells were pre-treated with 50 μL/well of 2× compound in serum free medium [DMEM with 0.1% fatty acid free BSA] at 37° C. for 30 minutes. Following the incubation, 50 μL/well of 20 μM LPA diluted in serum free medium [DMEM with 0.1% fatty acid free BSA] was added to the cells. Serum free medium [DMEM with 0.1% fatty acid free BSA] was used as substitution for low control wells while 20 µM LPA was added to high control wells and test compound wells. 200 µM LPA was added to EC100 wells. Final DMSO concentration was 1% in every well. Final LPA concentration in test compound wells and high control wells was 10 μM. […] After the incubation, cell supernatant was transferred to a new 96 well polypropylene plate (Greiner #651201) where it was sealed and stored at −80° C. On the detection day, 5 μL of thawed cell supernatant was transferred to a new white opaque 384-well microplate (Perkin Elmer #6007299). An AlphaLISA® mouse/rat CCL2/MCP1, Immunoassay Research kit (PerkinElmer #AL509F) was used. A mixture (20 μL/well) of AlphaLISA® Anti-Analyte Accept beads (10 μg/mL final) and Biotinylated Antibody Anti-Analyte (freshly prepared, 1 nM final) was added. The mixture in the wells was mixed and then incubated at room temperature for 1 hour. Then SA-Donor beads (25 μL/well, 40 μg/mL final) were added giving a final volume of 50 μL/well. The contents of the wells were mixed and then incubated at room temperature for 0.5 hour (protect from light). The plate was read using the default Envision™ Alpha protocol (PerkinElmer). IC50 values were calculated from curve fits of the ratio data using a four-parameter logistic Hill equation (Assay Explorer 3.3 Client).

Test [2] deals with T1, LPAR1 (Homo sapiens, UniProt Q92633).
T1 construct: host or cells: U2OS
The experiment in a line: LPAR1 FLIPR Assay. It is filed as cell-based. The conditions noted are these: U2OS cells stably expressing LPAR1, LPA (EC80), Calcium 6 FLIPR dye; for Emax: read-out: Maximum Inhibition. The protocol: U2OS cells stably expressing LPAR1 (Life Technologies #K1519A) were plated at 12000 cells/well in growth medium (McCoy's 5A medium(Life Technologies 16600-082)) with 10% dFBS (Life Technologies 26400-036), 0.1 mM non-essential amino acids, 25 mM HEPES, 1 mM sodium pyruvate, 1% penicillin/streptomycin, 50 μg/mL hygromycin, and 100 μg/mL Geneticin® in black-walled, clear-bottom 384-well plates (Corning #3683) and incubated in humidified 5% CO2 at 37° C. overnight. On the day of the assay, medium was removed and 30 μL of 5% Calcium 6 FLIPR dye in assay buffer-HBSS (Life Technologies #14025) containing 20 mM HEPES (Life Technologies #15630-080) was added to the cells. Cells were incubated at 37° C. in the dark for 2 hours. Compounds were 3-fold serial diluted from 10 mM for 11-points using dimethyl sulfoxide. 1 μL of compound in DMSO was diluted in 82.3 μL assay buffer immediately before the assay. Using a FLIPR® TETRA® system, 15 μL of the (4×) compound solutions were first added to the cells, then 15 μL of LPA (EC80) diluted in of assay buffer supplemented with 0.1% BSA was added 3 minutes later to activate the receptor. Changes in fluorescence were measured at wavelengths of 515-575 nm over the course of the experimental run. IC50 values were calculated from curve fits of the ratio data using a four-parameter logistic Hill equation (Assay Explorer 3.3 Client).

For orientation: IC50 means the point on the concentration scale where inhibition reaches its midpoint.

T1 sequence (Q92633 whole entry): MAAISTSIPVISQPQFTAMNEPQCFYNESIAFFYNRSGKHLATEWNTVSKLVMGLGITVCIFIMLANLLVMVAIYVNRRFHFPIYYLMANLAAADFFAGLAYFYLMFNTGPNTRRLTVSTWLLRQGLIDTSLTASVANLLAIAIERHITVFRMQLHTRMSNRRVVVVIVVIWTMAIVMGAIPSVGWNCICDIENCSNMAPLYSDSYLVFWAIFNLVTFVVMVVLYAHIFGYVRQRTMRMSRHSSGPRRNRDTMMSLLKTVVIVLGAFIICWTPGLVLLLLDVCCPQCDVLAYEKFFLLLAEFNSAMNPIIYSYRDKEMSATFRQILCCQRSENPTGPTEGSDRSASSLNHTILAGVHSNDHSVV

Turning to `COc1cc(C(=O)N(CCCc2ccccc2)CCCC(O)C(=O)O)cc(OC)c1C1CC1` (stereo not shown) [Example 165, 5-[(4-cyclopropyl-3,5-dimethoxybenzoyl)(3-phenylpropyl)amino]-2-hydroxypentanoic Acid], in test [1], inhibition was half-maximal at 2730 nM (IC50) and the Emax was determined as 70%. For the same compound, in test [2], the IC50 turned out to be 45 nM and the Emax was 83%.

For the compound `CCOc1cc(OCC)cc(C(=O)N(CCCCC(=O)O)CCCc2ccccc2)c1` [Example 18, 5-[(3,5-diethoxybenzoyl)(3-phenylpropyl)amino]pentanoic Acid], in test [1], the IC50 stood at 1630 nM and the Emax was found to be 86%. Besides, in test [2], the concentration for half-maximal inhibition (IC50) came to 50 nM and the Emax is 89%.

In the case of `COc1cc(C(=O)N(CCCCC(=O)O)CCCc2ccccc2)ccc1Cl` [Example 17, 5-[(4-chloro-3-methoxybenzoyl)(3-phenylpropyl)amino]pentanoic Acid], the IC50 in test [1] was > 1300 nM; in test [2] it was 3980 nM. The Emax in test [1] stood at 65%; in test [2], 61%.

As for `COc1cc(C(=O)N(CCCCC(=O)O)CCC(C)c2ccccc2)cc(OC)c1C` (stereo not shown) [Example 182, 5-[(3,5-dimethoxy-4-methylbenzoyl)(3-phenylbutyl)amino]pentanoic Acid], in test [1], the IC50 came out at 994 nM and the Emax was 85%. Also, in test [2], the IC50 was determined as 47 nM and the Emax turned out to be 91%.

Consider `COc1ccc(C(C)(C)C(=O)N(CCCCC(=O)O)CCCc2ccccc2)cc1` [Example 85, 5-{[2-(4-methoxyphenyl)-2-methylpropanoyl](3-phenylpropyl)amino}pentanoic Acid], for which, in test [1], the IC50 is > 10000 nM and the Emax turned out to be 12%. Also, in test [2], the IC50 is > 30000 nM and the Emax amounted to 14%.

In the case of `O=C(O)CCCCN(CCCc1ccccc1)C(=O)C1CC(=O)Nc2cc(F)ccc21` (stereo not shown) [Example 170, 5-[(7-fluoro-2-oxo-1,2,3,4-tetrahydroquinoline-4-carbonyl)(3-phenylpropyl)amino]pentanoic Acid], the IC50 in test [1] is > 10000 nM; in test [2], 333 nM. The Emax in test [1] is 50%; in test [2] it was 81%.

`COc1cc(C(=O)N(CCCc2c(F)cccc2F)CCSCC(=O)O)cc(OC)c1C` [Example 113, [(2-{[3-(2,6-difluorophenyl)propyl](3,5-dimethoxy-4-methylbenzoyl)amino}ethyl)sulfanyl]acetic Acid]: the IC50 in test [1] came to 1010 nM; in test [2], 32 nM. Besides, the Emax in test [1] came to 86%; in test [2], 87%.

`COc1cc(C(=O)N(CCCCC(=O)O)CCCc2ccc(F)cc2F)cc(OC)c1C` [Example 146, 5-{[3-(2,4-difluorophenyl)propyl](3,5-dimethoxy-4-methylbenzoyl)amino}pentanoic Acid]: the IC50 in test [1] is 807 nM; in test [2], 46 nM. Also, the Emax was found to be 79% in test [1] and 89% in test [2].

Consider `COc1cc(C(=O)N(CCCCC(=O)NS(=O)(=O)C(C)C)CCCc2ccccc2)cc(OC)c1C` [Example 124, 3,5-dimethoxy-4-methyl-N-{5-oxo-5-[(propane-2-sulfonyl)amino]pentyl}-N-(3-phenylpropyl)benzamide], for which, in test [1], 1150 nM corresponded to half-maximal inhibition (IC50) and the Emax turned out to be 88%. For the same compound, in test [2], the IC50 turned out to be 59 nM and the Emax was found to be 92%.

For the compound `COc1cc(C(=O)N(CCCCC(=O)O)CCCc2ccccc2)ccc1[N+](=O)[O-]` [Example 22, 5-[(3-methoxy-4-nitrobenzoyl)(3-phenylpropyl)amino]pentanoic Acid], in test [1], the IC50 is > 9350 nM and the Emax worked out at 42%. Also, in test [2], the concentration for half-maximal inhibition (IC50) was 54 nM and the Emax is 89%.

In the case of `CC(=O)Nc1cc(C(=O)N(CCCCC(=O)O)CCCc2ccccc2)ccn1` [Example 171, 5-[(2-acetamidopyridine-4-carbonyl)(3-phenylpropyl)amino]pentanoic Acid], in test [1], the IC50 is > 2180 nM and the Emax was found to be 30%. In test [2], the concentration for half-maximal inhibition (IC50) was found to be 933 nM and the Emax turned out to be 70%.

Turning to `COc1cc(C(=O)N(CCCc2ccc(C)o2)CCCC(C)C(=O)O)cc(OC)c1C` (stereo not shown) [Example 179, 5-{(3,5-dimethoxy-4-methylbenzoyl)[3-(5-methylfuran-2-yl)propyl]amino}-2-methylpentanoic Acid], in test [1], the IC50 was determined as 1980 nM and the Emax came out at 74%. In addition, in test [2], the concentration for half-maximal inhibition (IC50) turned out to be 46 nM and the Emax came out at 97%.

Take `COc1cc(C(=O)N(CCCc2ccccc2)CCC(=O)O)cc(OC)c1C` [Example 67, N-(3,5-dimethoxy-4-methylbenzoyl)-N-(3-phenylpropyl)-beta-alanine]: the IC50 in test [1] is 3720 nM; in test [2] it was > 30000 nM. Besides, the Emax in test [1] amounted to 57%; in test [2], 46%.

With `COc1cc(C(=O)N(CCCc2ccccc2)CCCC(C)(C)C(=O)NS(C)(=O)=O)cc(OC)c1C` [Example 162, N-{5-[(methanesulfonyl)amino]-4,4-dimethyl-5-oxopentyl}-3,5-dimethoxy-4-methyl-N-(3-phenylpropyl)benzamide], the IC50 amounted to 7 nM in test [1] and 76 nM in test [2]. Besides, the Emax in test [1] was 94%; in test [2], 100%.

On to `COc1ccc(C(=O)N(CCCCC(=O)O)CCCc2ccccc2)cc1OC` [Example 83, 5-[(3,4-dimethoxybenzoyl)(3-phenylpropyl)amino]pentanoic Acid], for which, in test [1], the IC50 was > 10000 nM and the Emax worked out at 11%. In test [2], the IC50 was > 30000 nM and the Emax is 25%.

`CNS(=O)(=O)NC(=O)CCCCN(CCCc1ccccc1)C(=O)c1cc(OC)c(C)c(OC)c1` [Example 70, 3,5-dimethoxy-4-methyl-N-{5-[(methylsulfamoyl)amino]-5-oxopentyl}-N-(3-phenylpropyl)benzamide]: in test [1], the IC50 was 637 nM and the Emax is 90%. Moreover, in test [2], the IC50 turned out to be 56 nM and the Emax stood at 98%.

`COc1cc(C(=O)N(CCCCC(=O)NS(=O)(=O)c2ccccc2)CCCc2ccccc2)cc(OC)c1C` [Example 144, N-{5-[(benzenesulfonyl)amino]-5-oxopentyl}-3,5-dimethoxy-4-methyl-N-(3-phenylpropyl)benzamide]: in test [1], half-maximal inhibition (IC50) required 1090 nM and the Emax was determined as 96%. In test [2], the half-inhibitory concentration (IC50) turned out to be 99 nM and the Emax came to 92%.

Turning to `COc1ccc(C(=O)N(CCCCC(=O)O)CCCc2ccccc2)cc1F` [Example 79, 5-[(3-fluoro-4-methoxybenzoyl)(3-phenylpropyl)amino]pentanoic Acid], in test [1], the IC50 is > 10000 nM and the Emax came out at 36%. Besides, in test [2], the IC50 was > 30000 nM and the Emax worked out at 13%.

With `COc1cc(C(=O)N(CCCOC(=O)NS(C)(=O)=O)CCCc2ccccc2)cc(OC)c1C` [Example 186, 3-[(3,5-dimethoxy-4-methylbenzoyl)(3-phenylpropyl)amino]propyl (methanesulfonyl)carbamate], in test [1], half-maximal inhibition (IC50) required 7050 nM and the Emax is 54%. For the same compound, in test [2], the concentration for half-maximal inhibition (IC50) was 65 nM and the Emax was found to be 83%.

Source of the values: patent publication US20190119200A1, “TERTIARY AMIDES AND METHOD OF USE” (AbbVie Inc., priority 2016, published 2019).
